The results in this text go back to publication PMC2785710 (Bioorganic & medicinal chemistry letters, 2009).

The data set can be described thus: in vitro metabolic stability in pooled mouse liver microsomes. It is filed as in vitro ADME. The settings on record: for half-life: t1/2, mouse liver microsomes. On the technique in general: Liver microsomes are vesicles of endoplasmic reticulum, rich in cytochrome P450 enzymes.

As usually defined, the half-life is the time needed for the level to fall by half in the phase considered. Low values mean rapid decline, high ones slow decline. Turning to `O=C(Nc1ccccc1Cl)c1cnc2ccc(C3CCNCC3)cn12.O=C(O)C(=O)O` [Compound 32], the half-life was 348 min.
A word on the microsomal CLint: it is the rate of metabolic loss divided by the concentration. The low end stands for slow turnover, the high end for rapid turnover. Turning to `O=C(Nc1ccccc1Cl)c1cnn2ccc(-c3ccccc3)cc12` [Compound 54], the microsomal CLint amounted to 51 ± 2.1 µL/min/mg and the half-life was 27 min.
In the same order, the values of `O=C(Nc1ccccc1Cl)c1cnn2ccc(N3CCCCC3)cc12` [Compound 58] are 167 ± 4.2 µL/min/mg and 8.3 min.
With `O=C(Nc1ccccc1Cl)c1cnc2ccccn12` [Compound 69], the microsomal CLint stood at 361 ± 64 µL/min/mg and the half-life is 3.8 min.
Consider `O=C(Nc1ccccc1Cl)c1cnc2ccc(-c3ccccc3)cn12` [Compound 70], for which the microsomal CLint is 26 ± 0.8 µL/min/mg and the half-life was determined as 53 min.
`O=C(Nc1ccccc1Cl)c1cnc2ccc(N3CCCCC3)cn12` [Compound 71] displayed a microsomal CLint of 71 ± 2 µL/min/mg and a half-life of 20 min.
